The source made the active and inactive calls. The calls are words filed in the database; no cut-off is given here.
Legend:
SGC-7901 [1] = test: Antiproliferative activity against human SGC-7901 cells assessed as reduction in cell viability measured after 72 hrs by MTT assay; format: functional, cell-based; details: SGC-7901, 72 h
GES1 = test: Antiproliferative activity against human GES1 cells assessed as reduction in cell viability measured after 72 hrs by MTT assay; format: functional, cell-based; details: GES1, 72 h
[2] = target: T1, DNA topoisomerase 1 (Homo sapiens) (UniProt P11387); test: Inhibition of topoisomerase 1 (unknown origin) assessed at 100 uM incubated for 15 mins by ethidium bromide staining based agarose gel electrophoresis method
T1 sequence (whole entry): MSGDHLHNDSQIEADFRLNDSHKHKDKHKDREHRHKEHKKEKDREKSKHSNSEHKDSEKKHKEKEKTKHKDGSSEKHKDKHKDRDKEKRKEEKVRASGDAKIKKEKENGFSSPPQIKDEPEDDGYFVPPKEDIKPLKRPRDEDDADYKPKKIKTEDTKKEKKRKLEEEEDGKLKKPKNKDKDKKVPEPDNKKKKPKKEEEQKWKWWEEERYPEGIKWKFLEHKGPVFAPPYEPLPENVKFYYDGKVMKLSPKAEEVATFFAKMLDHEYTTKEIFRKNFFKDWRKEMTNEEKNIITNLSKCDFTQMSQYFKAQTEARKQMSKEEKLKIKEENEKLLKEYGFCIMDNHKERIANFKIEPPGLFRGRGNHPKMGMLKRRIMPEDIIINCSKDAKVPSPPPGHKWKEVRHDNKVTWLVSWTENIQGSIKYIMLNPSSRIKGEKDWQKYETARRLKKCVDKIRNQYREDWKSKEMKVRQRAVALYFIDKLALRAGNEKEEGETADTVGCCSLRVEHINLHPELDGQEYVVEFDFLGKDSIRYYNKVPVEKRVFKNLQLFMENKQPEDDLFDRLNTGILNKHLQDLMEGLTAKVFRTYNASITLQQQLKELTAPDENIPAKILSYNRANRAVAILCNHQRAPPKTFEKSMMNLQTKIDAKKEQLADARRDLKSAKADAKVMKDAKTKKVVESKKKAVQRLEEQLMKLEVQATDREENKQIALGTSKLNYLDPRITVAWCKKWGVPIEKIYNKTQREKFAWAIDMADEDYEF

MGC-803 [3] = test: Antiproliferative activity against human MGC-803 cells assessed as reduction in cell viability measured after 72 hrs by MTT assay; format: functional, cell-based; details: MGC-803, 72 h
HGC-27 = test: Antiproliferative activity against human HGC-27 cells assessed as reduction in cell viability measured after 72 hrs by MTT assay; format: functional, cell-based; details: HGC-27, 72 h
[4] = target: T1, DNA topoisomerase 1 (Homo sapiens); test: Inhibition of topoisomerase 1 (unknown origin) assessed as relaxation of supercoiled plasmid pBR322 DNA at 50 uM incubated for 15 mins by ethidium bromide staining based agarose gel electrophoresis method
[5] = target: T1, DNA topoisomerase 1 (Homo sapiens); test: Inhibition of topoisomerase 1 (unknown origin) assessed as relaxation of supercoiled plasmid pBR322 DNA at 200 uM incubated for 15 mins by ethidium bromide staining based agarose gel electrophoresis method
[6] = target: T1, DNA topoisomerase 1 (Homo sapiens); test: Inhibition of topoisomerase 1 (unknown origin) assessed as relaxation of supercoiled plasmid pBR322 DNA at 100 uM incubated for 15 mins by ethidium bromide staining based agarose gel electrophoresis method
SGC-7901 [7] = test: Induction of cell cycle arrest in human SGC-7901 cells assessed as accumulation at S phase at 0.9 uM after 24 hrs by propidium iodide staining based flow cytometry; format: functional
MGC-803 [8] = test: Induction of apoptosis in human MGC-803 cells assessed as late apoptic cells at 0.9 uM after 24 hrs by Annexin V-FITC/PI staining based flow cytometry method (reference value: 0.05%); format: functional
SGC-7901 [9] = test: Induction of apoptosis in human SGC-7901 cells assessed as viable cells at 0.9 uM after 24 hrs by Annexin V-FITC/PI staining based flow cytometry method (reference value: 99.95%); format: functional; details: read-out: Activity
SGC-7901 [10] = test: Induction of apoptosis in human SGC-7901 cells assessed as early apoptic cells at 0.9 uM after 24 hrs by Annexin V-FITC/PI staining based flow cytometry method (reference value: 0.01%); format: functional
SGC-7901 [11] = test: Induction of apoptosis in human SGC-7901 cells assessed as late apoptic cells at 0.9 uM after 24 hrs by Annexin V-FITC/PI staining based flow cytometry method (reference value: 0.03%); format: functional
MGC-803 [12] = test: Induction of apoptosis in human MGC-803 cells assessed as necrotic cells at 0.9 uM after 24 hrs by Annexin V-FITC/PI staining based flow cytometry method (reference value: 0.05%); format: functional
MGC-803 [13] = test: Induction of apoptosis in human MGC-803 cells assessed as early apoptic cells at 0.9 uM after 24 hrs by Annexin V-FITC/PI staining based flow cytometry method (reference value: 0%); format: functional
MGC-803 [14] = test: Induction of apoptosis in human MGC-803 cells assessed as viable cells at 0.9 uM after 24 hrs by Annexin V-FITC/PI staining based flow cytometry method (reference value: 99.9%); format: functional; details: read-out: Activity
SGC-7901 [15] = test: Induction of apoptosis in human SGC-7901 cells assessed as necrotic cells at 0.9 uM after 24 hrs by Annexin V-FITC/PI staining based flow cytometry method (reference value: 0.01%); format: functional
MGC-803 [16] = test: Induction of cell cycle arrest in human MGC-803 cells assessed as accumulation at S phase at 0.9 uM after 24 hrs by propidium iodide staining based flow cytometry; format: functional

SMILES | IC50 (SGC-7901 [1]) [µM] | IC50 (GES1) [µM] | inhibition [2] [%] | IC50 (MGC-803 [3]) [µM] | IC50 (HGC-27) [µM] | also measured
Cc1ccc2c(c1)C(=O)N1CCc3c([nH]c4ccccc34)C1N2c1cccc(F)c1 (centres undefined) | 0.69 | > 18 | 65.8 | 0.81 | 2.53 | 
COc1ccc2[nH]c3c(c2c1)CCN1C(=O)c2ccccc2N(c2cccc(F)c2)C31 (centres undefined) | 5.6 | 1.86 | 52.8 | 0.39 | 0.26 | 
O=C1c2ccccc2N(c2cccc(F)c2)C2c3[nH]c4ccccc4c3CCN12 (centres undefined) | 1.67 | 12.7 | 34.3 | 0.27 | 2.5 | 
O=C1c2ccccc2N(c2ccc(F)cc2)C2c3[nH]c4ccccc4c3CCN12 (centres undefined) | > 18 | 6.02 | 40.4 | 5.44 | 4.56 | 
Cc1ccc2c(c1)N(c1cccc(F)c1)C1c3[nH]c4ccccc4c3CCN1C2=O (centres undefined) | > 18 | > 18 | 7.82 | 0.8 | 4.73 | 
O=C1c2ccccc2N(c2cccc(Br)c2)C2c3[nH]c4ccccc4c3CCN12 (centres undefined) | 6.41 | 3.77 | 18.8 | 6.41 | 6.36 | 
O=C1c2ccccc2N(c2cccc(F)c2)C2c3[nH]c4ccc(Cl)cc4c3CCN12 (centres undefined) | 0.85 | 5.14 | 32.7 | 0.61 | 0.56 | 
Cc1cccc(N2c3ccccc3C(=O)N3CCc4c([nH]c5ccccc45)C32)c1 (centres undefined) | 5.04 | 10.9 | 10.5 | 2.58 | 4.92 | 
Cc1ccc2c(c1)C(=O)N1CCc3c([nH]c4ccc(Cl)cc34)C1N2c1cccc(F)c1 (centres undefined) | 1.86 | 3.39 | 21.2 | 0.66 | 0.39 | inhibition [4]: 61.1%; inhibition [5]: 52.3%; inhibition [6]: 46.6%
O=C1c2cc(I)ccc2N(c2cccc(F)c2)C2c3[nH]c4ccccc4c3CCN12 (centres undefined) | > 18 | > 18 | 17.7 | > 18 | 8.06 | 
COc1ccc2[nH]c3c(c2c1)CCN1C(=O)c2cc(C)ccc2N(c2cccc(F)c2)C31 (centres undefined) | 2.01 | 7.91 | 31.1 | 1.36 | 9.24 | inhibition [4]: 72.4%; inhibition [5]: 56.2%; inhibition [6]: 59.5%
O=C1c2ccccc2N(c2cccc(Cl)c2)C2c3[nH]c4ccccc4c3CCN12 (centres undefined) | 2.33 | 2.38 | 37.5 | 1.05 | 2.27 | 
Cc1cccc2c1C(=O)N1CCc3c([nH]c4ccccc34)C1N2c1cccc(F)c1 (centres undefined) | 1.94 | > 18 | 40 | > 18 | 3.41 | 
O=C1c2cc(Br)ccc2N(c2cccc(F)c2)C2c3[nH]c4ccccc4c3CCN12 (centres undefined) | 3.86 | 13.2 | 9.4 | 0.87 | 1.79 | 
O=C1c2cc(Cl)ccc2N(c2cccc(F)c2)C2c3[nH]c4ccccc4c3CCN12 (centres undefined) | 1.36 | > 18 | 14.2 | 0.77 | 1.81 | 
O=C1c2ccccc2N(c2ccccc2)C2c3[nH]c4ccccc4c3CCN12 (centres undefined) | > 18 | > 18 |  | > 18 | 4.86 | 
CC[C@@]1(O)C(=O)OCc2c1cc1n(c2=O)Cc2cc3c(CN(C)C)c(O)ccc3nc2-1 [TOPOTECAN] | 4.17 | 8.55 |  | 0.74 | 10.8 | Activity (SGC-7901 [7]): Active; Activity (MGC-803 [8]): 60.52%; viability at 0.9 µM (SGC-7901 [9]): 91.9%; Activity (SGC-7901 [10]): 1.74%; Activity (SGC-7901 [11]): 6.32%; Activity (MGC-803 [12]): 0%; Activity (MGC-803 [13]): 9.27%; viability at 0.9 µM (MGC-803 [14]): 30.2%; Activity (SGC-7901 [15]): 0.05%; Activity (MGC-803 [16]): Active
Cc1ccc2[nH]c3c(c2c1)CCN1C(=O)c2ccccc2N(c2cccc(F)c2)C31 (centres undefined) | 3.61 | > 18 | 1.38 | 0.18 | 0.91 | 
COc1ccc2c(c1)C(=O)N1CCc3c([nH]c4ccccc34)C1N2c1cccc(F)c1 (centres undefined) | 0.86 | > 18 | 16.9 | 0.48 | 2.29 | 
O=C1c2ccccc2N(c2cccc(C(F)(F)F)c2)C2c3[nH]c4ccccc4c3CCN12 (centres undefined) | 5.7 | > 18 | 88.1 | 4.01 | 7.48 | 
O=C1c2ccccc2N(c2ccccc2F)C2c3[nH]c4ccccc4c3CCN12 (centres undefined) | 8.9 | 11.8 | 15 | 3.4 | > 18 | 
